This passage reports Kd and Km results from publication PMC6900522 (Proceedings of the National Academy of Sciences of the …, 2019).

In one data set the target is T1, GUN1-PS (Arabidopsis thaliana, UniProt Q9SIC9).
T1 sequence (Q9SIC9 232-918): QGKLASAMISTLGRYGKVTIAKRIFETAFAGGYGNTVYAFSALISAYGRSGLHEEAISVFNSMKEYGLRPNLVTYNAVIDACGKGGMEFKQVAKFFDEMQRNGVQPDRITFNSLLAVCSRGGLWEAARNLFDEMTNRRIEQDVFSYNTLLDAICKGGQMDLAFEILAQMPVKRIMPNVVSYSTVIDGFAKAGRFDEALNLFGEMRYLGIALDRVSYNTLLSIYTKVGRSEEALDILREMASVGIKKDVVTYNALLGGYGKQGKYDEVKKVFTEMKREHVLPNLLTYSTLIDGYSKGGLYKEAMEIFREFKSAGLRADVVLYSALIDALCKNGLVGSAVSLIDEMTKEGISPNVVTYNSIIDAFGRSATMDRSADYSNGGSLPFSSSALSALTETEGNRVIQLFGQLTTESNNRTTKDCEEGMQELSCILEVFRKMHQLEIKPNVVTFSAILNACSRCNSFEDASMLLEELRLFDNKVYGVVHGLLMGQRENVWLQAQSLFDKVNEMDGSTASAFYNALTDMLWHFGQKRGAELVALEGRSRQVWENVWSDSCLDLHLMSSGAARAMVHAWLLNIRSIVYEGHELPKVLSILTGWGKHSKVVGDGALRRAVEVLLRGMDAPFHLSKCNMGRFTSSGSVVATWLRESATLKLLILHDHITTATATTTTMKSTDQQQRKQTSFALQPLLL
Kind of data set: differential absorption spectrophotometry. Format: binding.

Substrate in the data set “purified protein”: C=CC1=C(C)c2cc3[nH]c(cc4nc(cc5[nH]c(cc1n2)c(C)c5CCC(=O)O)C(CCC(=O)O)=C4C)c(C)c3C=C
As to the kind of experiment: purified protein. The settings on record: Zn chelation; without GUN1-PS.

As a reminder, the Kd is the concentration at which binding is half-saturated. Higher therefore signals a looser complex. For `C=CC1=C(C)c2cc3[nH]c(cc4nc(cc5[nH]c(cc1n2)c(C)c5CCC(=O)O)C(CCC(=O)O)=C4C)c(C)c3C=C` [Proto IX], the affinity on GUN1-PS, expressed as Kd, was 4.42 ± 0.56 µM.

On to `C=CC1=C(C)C2=Cc3c(C=C)c(C)c4[n]3[Fe]([Cl])[n]3c(c(C)c(CCC(=O)O)c3=CC3=NC(=C4)C(C)=C3CCC(=O)O)=CC1=N2` [hemin], for which, at GUN1-PS, the equilibrium dissociation constant (Kd) stood at 6.08 ± 1.11 µM.

B1: FC1 (Arabidopsis thaliana) (protein)
chain: CDIKERSFGESMTITNRGLSFKTNVFEQARSVTGDCSYDETSAKARSHVVAEDKIGVLLLNLGGPETLNDVQPFLYNLFADPDIIRLPRPFQFLQGTIAKFISVVRAPKSKEGYAAIGGGSPLRKITDEQADAIKMSLQAKNIAANVYVGMRYWYPFTEEAVQQIKKDKITRLVVLPLYPQYSISTTGSSIRVLQDLFRKDPYLAGVPVAIIKSWYQRRGYVNSMADLIEKELQTFSDPKEVMIFFSAHGVPVSYVENAGDPYQKQMEECIDLIMEELKARGVLNDHKLAYQSRVGPVQWLKPYTDEVLVDLGKSGVKSLLAVPVSFVSEHIETLEEIDMEYRELALESGVENWGRVPALGLTPSFITDLADAVIESLPSAEAMSNPNAVVDSEDSESSDAFSYIVKMFFGSILAFVLLLSPKMFHAFRNL
Usually Km stands for the substrate concentration at which the rate is half of its maximum. On to B1, for which the Michaelis-Menten constant (Km) in the data set “purified protein” is recorded as 26.5 µM.
